What was measured:
[1] = Behavior suppressing activity (background statement); format: in vivo; conditions: background / disclosure statement
[2] = system: hypoxia and anoxia models; conditions: Sakurai et al., Jpn. J. Pharmacol. 1993; cited from earlier work
hypoxic model of mice = assay: Cerebral protective action (anti-anoxia action), hypoxic model of mice, gasping duration after decapitation; format: in vivo, ddY-strain male mice; conditions: 1.0 mg/kg i.v., 30 minutes before decapitation
Experimental: Cerebral protective action of the pyridinecarboxamide derivatives of this invention (an anti-anoxia action) were studied using a hypoxic model of mice.
Using ddY-strain male mice of 6 weeks old, the test substance of Compound 1, Compound 10 or Compound 11 was intravenously administered to the tail vein at the dose of 1.0 mg/kg. After 30 minutes from the administration, animals were decapitated to measure a gasping duration. This measurement was made by two persons who had not been informed of the test substances and the measured values were averaged to obtain the data. Also, the test was carried out in the same manner as described above except that Comparative Compound 1 was administered instead of the test substances.
The action of each substance will be shown in Table 2, with the gasping time of Comparative Compound 1 being defined as 1.
It is believed that grasping after decapitation is controlled by the respiratory center and, if the nervous functions are maintained by the respiratory center, the gasping duration would be prolonged. […] In view of the foregoing, the pyridinecarboxamide derivatives of this invention can prolong the gasping duration and then are useful as a cerebral protective agent.

[3] = Behavior suppressing action (general behaviors of mice); format: in vivo, ddY-strain mice; conditions: 10 mg/kg, tail vein; for Behavioral suppression: observed over one hour
Experimental: The effect of the present pyridinecarboxamide derivatives on general behaviors of mice was studied.
Using ddY-strain mice of 7 weeks old, test substance was administered at 100μ11/10 sec to the tail vein and behavior of the animal was observed over one hour. After the administration, sedative animal was evaluated as sedated, while animal with behavioral suppression was evaluated as suppressed.

[4] = system: cerebral edema, ischemic reperfusion model using SHR-SP; assay: Anti-cerebral edema action (ischemic reperfusion model using SHR-SP); format: in vivo, male SHR-SP (spontaneous hypertensive rats); conditions: 1 mg/kg i.v. twice; for Inhibitory rate of cerebral ischemia (cerebral edema): immediately after ischemia and immediately before reperfusion
Experimental: The pyridinecarboxamide derivatives of this invention were studied for the inhibitory action on cerebral edema with the model using SHR-SP (Spontaneous hypertensive rats which are vulnerable to cerebral hemorrhage).
Male SHR-SP of 15-17 weeks old were measured for the blood pressure one day before the testing and classified into groups. Both common carotid arteries were separated under pentobarbital anesthesia at 35 mg/kg and common carotid arteries were fastened by clamp to cause ischemia. After 2 hours, the clamp was removed from the common carotid artery to reperfuse. After a further 2 hours, the animal was decapitated and the cerebrum excised under ether anesthesia. The cerebrum was dried in an oven at 105° C. for 24 hours and the cerebral water content (%) was calculated. [formula]
Compound 1 and Comparative Compound 2 were intravenously administered twice, that is, immediately after the ischemia and immediately before the reperfusion at the dose of 1 mg/kg, respectively.

hippocampus CA1 cells = assay: Inhibitory rate of delayed neuronal death; format: in vivo, MON/Jms/Gbs-strain male jirds; conditions: 0.5 mg/kg, carotid artery, immediately after ischemia; jirds; 7 days
Experimental: MON/Jms/Gbs-strain male jirds (weighing 60-80 g) were fixed at the dorsal position under 1.5-2.0% halothane anesthesia and the common carotid artery was isolated. Ischemia was caused by fastening the common carotid artery with clamp for 3 minutes and then reperfused. After 7 days, the brain was excised under ether anesthesia and fixed with 10% formalin for 2 days and then tissue slices of the hippocampus were prepared. The hippocampus CA1 cells were stained using HE staining and the survival rate of the CA1 cells was evaluated.
Compound 1 was administered to the carotid artery at the dose of 0.5 mg/kg immediately after ischemia. Using as a control the case wherein the drug was not administered, inhibitory rate was calculated according to the following equation: [formula]

[5] = system: lipid peroxidation in rat brain homogenate; assay: Inhibitory action on lipid peroxidation in rat brain homogenate; format: biochemical, Wistar-strain male rats; conditions: 10^-4 M, 37° C., 15 minutes
Experimental: Inhibitory action on lipid peroxidation was studied in rat brain homogenate.
Wistar-strain male rats (weighing 230-300 g) were decapitated and the cerebrum was quickly excised. A 4 times volume of a solution of 50 mM phosphoric acid and […] NaCl (pH 7.4) was added and the mixture was homogenated and then centrifuged at 3000 rpm for 10 minutes. The supernatant thus obtained was prepared to give a protein level of 2 mg/ml.
Determination of lipid peroxide was carried out using TBA method (thiobarbituric acid). To the brain homogenate was added each of Compound 1, Compound 5, Compound 6, Compound 8, Compound 9, Compound 11 and Compound 14 as a test substance to give a final concentration of 10^-4 M, thereby initiating the reaction. After incubation at 37° C. for 15 minutes, the reaction was stopped in ice by adding a 35% perchloric acid solution. The reaction mixture was centrifuged at 4° C. and 1000 rpm for 5 minutes and to the supernatant thus obtained was added a 0.5% TBA solution. The mixture was boiled at 100° C. for 15 minutes. After cooling, absorbance was determined at 532 nm. 1,1,3,3-Tetraethoxypropane as a standard was subjected to the reaction in the same manner as above and an amount of lipid peroxide, that is, an amount of the malondialdehyde (MDA) produced was determined from the absorbance.
Inhibitory rate of lipid peroxidation was calculated according to the following equation: [formula]

[6] = system: cerebral edema model using polyvinyl acetate; assay: Anti-cerebral edema action (obstructive cerebral ischemia model using polyvinyl acetate); format: in vivo, Wistar-strain male rats; conditions: 1 mg/kg i.v., 5 minutes before polyvinyl acetate; rats
Experimental: Inhibiting action on cerebral ischemia was studied in an obstructive cerebral ischemia model using polyvinyl acetate.
The obstructive model was prepared as described below. (Hiroyoshi Nishi et al., Stroke 1989, 20:1236-1240)
Wistar-strain male rats weighing 200-350 g were used and fixed at the dorsal position under anesthesia of ether and then the left common carotid artery, internal carotid artery, external carotid artery were isolated. The external carotid artery was ligated, the pterylgopalatine artery was fastened with clamp and a cannula was inserted from the external carotid artery toward the branch between the internal carotid artery and the common carotid artery. 5 μl of a 3% polyvinyl acetate/52% ethanol solution in water was injected. After 30 seconds, the clamp was removed from the artery and then the wound was sutured. After 24 hours, animal was decapitated and the cerebrum was isolated, within 120 seconds from which wet weights of the left cerebrum and the right cerebrum were measured. The left and right cerebra were dried in an oven at 105° C. for 24 hours and then the dry weights were measured. A cerebral water content was calculated according to the following equation: [formula]
Compound 1 or Compound 9 was intravenously injected to the tail vein at the doses of 1.0 mg/kg and 3.0 mg/kg before 5 minutes from the administration of polyvinyl acetate.

[7] = known drug, background statement; cited from earlier work

Compound | Gasping duration (relative to Comparative Compound 1 defined as 1) (hypoxic model of mice) | General behaviors (result in words) [3] | Behavioral suppression [3] | Inhibitory rate of lipid peroxidation [5] [%] | also measured
CN1CCN(c2ccc(C(=O)NCCCCCCCCCCCO[N+](=O)[O-])cn2)CC1 [Comparative Compound 1, N-(11-nitroxy-1-undecanyl)-6-(4-methyl-1-piperazinyl)nicotinamide, reference compound] | 1 | suppression of behavior being shown | Sedated | – | Behavior suppressing activity [1]: observed to possess a behavior suppressing activity; Cerebral protective effect on the hypoxia and anoxia models [2]: could show a cerebral protective effect on the hypoxia and anoxia models
CN1CCN(c2ccc(C(=O)NCCCCCCCCCCCCO[N+](=O)[O-])cn2)CC1 [Comparative Compound 2, N-(12-nitroxy-1-dodecanyl)-6-(4-methyl-1-piperazinyl)nicotinamide, reference compound] | – | – | – | – | Anti-cerebral edema activity (result in words) [4]: made cerebral edema worse; Inhibitory rate of cerebral ischemia (cerebral edema) [4]: -90%
CN1CCN(c2ccc(C(=O)NCCCCCCCCCCCCCCO[N+](=O)[O-])cn2)CC1 [Compound 1, N-(14-Nitroxytetradecyl)-6-(4-methyl-1-piperazinyl)pyridine-3-carboxamide] | 2.6 | No abnormalities were observed in general behaviors | Non | 91 | Inhibitory rate (delayed neuronal death) (hippocampus CA1 cells): 47%; Anti-cerebral edema activity (result in words) [4]: potent anti-cerebral edema activity; Inhibitory rate of cerebral ischemia (cerebral edema) [4]: 63%; Inhibitory rate of cerebral edema [6]: 44.0%
CCN1CCN(c2ccc(C(=O)NCCCCCCCCCCCCCCO[N+](=O)[O-])cn2)CC1 [Compound 5, N-(14-Nitroxytetradecyl)-6-(4-ethyl-1-piperazinyl)pyridine-3-carboxamide] | – | No abnormalities were observed in general behaviors | Non | 69 | –
O=C(NCCCCCCCCCCCCCCO[N+](=O)[O-])c1ccc(N2CCNCC2)nc1 [Compound 6, N-(14-Nitroxytetradecyl)-6-(1-piperazinyl)pyridine-3-carboxamide] | – | No abnormalities were observed in general behaviors | Non | 59 | –
CCCN1CCN(c2ccc(C(=O)NCCCCCCCCCCCCCCO[N+](=O)[O-])cn2)CC1 [Compound 7, N-(14-Nitroxytetradecyl)-6-(4-propyl-1-piperazinyl)pyridine-3-carboxamide] | – | No abnormalities were observed in general behaviors | Non | – | –
CC(C)N1CCN(c2ccc(C(=O)NCCCCCCCCCCCCCCO[N+](=O)[O-])cn2)CC1 [Compound 8, N-(14-Nitroxytetradecyl)-6-(4-isopropyl-1-piperazinyl)pyridine-3-carboxamide] | – | No abnormalities were observed in general behaviors | Non | 70 | –
CN1CCN(c2ccc(C(=O)NCCCCCCCCCCCCCCCCO[N+](=O)[O-])cn2)CC1 [Compound 9, N-(16-Nitroxyhexadecyl)-6-(4-methyl-1-piperazinyl)pyridine-3-carboxamide] | – | No abnormalities were observed in general behaviors | Non | 72 | Inhibitory rate of cerebral edema [6]: 33.3%
CCN1CCN(c2ccc(C(=O)NCCCCCCCCCCCCCCCCO[N+](=O)[O-])cn2)CC1 [Compound 10, N-(16-Nitroxyhexadecyl)-6-(4-ethyl-1-piperazinyl)pyridine-3-carboxamide] | 1.7 | No abnormalities were observed in general behaviors | Non | – | –
CC(C)N1CCN(c2ccc(C(=O)NCCCCCCCCCCCCCCCCO[N+](=O)[O-])cn2)CC1 [Compound 11, N-(16-Nitroxyhexadecyl)-6-(4-isopropyl-1-piperazinyl)pyridine-3-carboxamide] | 1.4 | No abnormalities were observed in general behaviors | Non | 53 | –
CN1CCN(c2ccc(C(=O)NCCCCCCCCCCCCCCCCCCO[N+](=O)[O-])cn2)CC1 [Compound 13, N-(18-Nitroxyoctadecyl)-6-(4-methyl-1-piperazinyl)pyridine-3-carboxamide] | – | No abnormalities were observed in general behaviors | Non | – | –
O=C(NCCCCCCCCCCCCCCCCCCO[N+](=O)[O-])c1ccc(N2CCNCC2)nc1 [Compound 14, N-(18-Nitroxyoctadecyl)-6-(1-piperazinyl)pyridine-3-carboxamide] | – | – | – | 75 | –
CCN(CC)Cc1nccn1-c1ccc([N+](=O)[O-])cc1C(=O)c1ccccc1Cl [Nizofenone] | – | – | – | – | Behavior suppressing activity as a side-effect [7]: behavior suppressing activity

Reference: patent US5972943A, “Pyridinecarboxamide derivatives” (Nisshin Flour Milling Co., Ltd., priority 1996, dated 1999)
